Patent US20230348424A1, “HETEROCYCLIC COMPOUNDS AND METHODS OF USE” (Schrödinger, Inc., priority 2022, published 2023)

Target: SOS1:KRAS (G12C) interaction (Homo sapiens (Human), UniProt Q07889)
Experiment: SOS1 KRas(G12C) FRET Assay
Assay type: binding
Settings: 0.5 nM His10-SOS1 (res. 564-1049), 2.5 nM GST-KRAS G12C (res. 1-169), 2 hrs at RT
Method in brief: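 GST-KRAS G12C (res. 1-169) at 2.5 nM and His10-SOS1 (res. 564-1049) at 0.5 nM, final, in PBS with 0.1% BSA, 5 mM MgCl2, 100 mM KF, 5 mM DTT and 0.5% DMSO. After 2 h at RT, FRET read at 665/615 nm and normalized to DMSO and no-SOS1 controls. IC50 by non-linear regression.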

Chain of SOS1:KRAS (G12C) interaction (Q07889 564-1049, stated change not applied): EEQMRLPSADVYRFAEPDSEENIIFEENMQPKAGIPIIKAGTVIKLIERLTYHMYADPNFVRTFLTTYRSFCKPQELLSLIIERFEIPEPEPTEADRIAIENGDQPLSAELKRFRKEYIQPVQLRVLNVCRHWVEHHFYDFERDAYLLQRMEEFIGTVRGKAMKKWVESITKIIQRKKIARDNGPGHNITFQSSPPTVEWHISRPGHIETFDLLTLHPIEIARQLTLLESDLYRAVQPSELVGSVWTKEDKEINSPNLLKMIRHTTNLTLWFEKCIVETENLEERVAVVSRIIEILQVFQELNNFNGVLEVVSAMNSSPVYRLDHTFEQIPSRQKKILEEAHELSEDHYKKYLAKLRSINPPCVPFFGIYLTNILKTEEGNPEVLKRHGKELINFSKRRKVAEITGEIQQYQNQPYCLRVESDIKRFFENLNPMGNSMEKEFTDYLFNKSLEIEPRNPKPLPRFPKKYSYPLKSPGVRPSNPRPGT

IC50 [nM] | Compound
19.1 | C[C@@H](NC(=O)c1cn(C23CC(C2)C3)c(=O)cc1N[C@@H]1C[C@@H]2CN(C)C[C@@H]2C1)c1cccc(C(F)F)c1F [Example 216, 1-(bicyclo[1.1.1]pentan-1-yl)-N-((R)-1-(3-(difluoromethyl)-2-fluorophenyl)ethyl)-4-(((3aR,5r,6aS)-2-methyloctahydrocyclopenta[c]pyrrol-5-yl)amino)-6-oxo-1,6-dihydropyridine-3-carboxamide]
7.4 | C[C@@H](NC(=O)c1cn(C23CC(C2)C3)c(=O)cc1NC1CCN(C)CC1)c1cccc(C(F)F)c1F [Example 217, (R)-1-(bicyclo[1.1.1]pentan-1-yl)-N-(1-(3-(difluoromethyl)-2-fluorophenyl)ethyl)-4-((1-methylpiperidin-4-yl)amino)-6-oxo-1,6-dihydropyridine-3-carboxamide]
26.8 | C[C@@H](NC(=O)c1cn(C23COC(C)(C2)C3)c(=O)cc1NC1CCN(C)CC1)c1cccc(C(F)F)c1F [Example 220, (R)-N-(1-(3-(difluoromethyl)-2-fluorophenyl)ethyl)-1-(1-methyl-2-oxabicyclo[2.1. 1]hexan-4-yl)-4-((1-methylpiperidin-4-yl)amino)-6-oxo-1,6-dihydropyridine-3-carboxamide]
38.2 | C[C@@H](NC(=O)c1cn(C2(C(F)F)CC2)c(=O)cc1NC[C@H]1CCCN1C)c1cccc(C(F)F)c1F [Example 221, N-((R)-1-(3-(difluoromethyl)-2-fluorophenyl)ethyl)-1-(1-(difluoromethyl)cyclopropyl)-4-((((R)-1-methylpyrrolidin-2-yl)methyl)amino)-6-oxo-1,6-dihydropyridine-3-carboxamide]
27.6 | C[C@@H](NC(=O)c1cn(C2(C)CC(F)(F)C2)c(=O)cc1NC1CCN(C)CC1)c1cccc(C(F)F)c1F [Example 222, (R)-1-(3,3-difluoro-1-methylcyclobutyl)-N-(1-(3-(difluoromethyl)-2-fluorophenyl)ethyl)-4-((1-methylpiperidin-4-yl)amino)-6-oxo-1,6-dihydropyridine-3-carboxamide]
14.1 | C[C@@H](NC(=O)c1cn(C2(C(F)(F)F)CCCC2)c(=O)cc1NC1CCN(C)CC1)c1cccc(C(F)F)c1F [Example 223, (R)-N-(1-(3-(difluoromethyl)-2-fluorophenyl)ethyl)-4-((1-methylpiperidin-4-yl)amino)-6-oxo-1-(1-(trifluoromethyl)cyclopentyl)-1,6-dihydropyridine-3-carboxamide]
46.8 | C[C@@H](NC(=O)c1cn(C2(C)CC(F)(F)C2)c(=O)cc1N[C@H]1[C@@H]2CN(C)C[C@@H]21)c1cccc(C(F)F)c1F [Example 224, 1-(3,3-difluoro-1-methylcyclobutyl)-N-((R)-1-(3-(difluoromethyl)-2-fluorophenyl)ethyl)-4-(((1R,5S,6s)-3-methyl-3-azabicyclo[3.1.0]hexan-6-yl)amino)-6-oxo-1,6-dihydropyridine-3-carboxamide]
13.9 | C[C@@H](NC(=O)c1cn(C2(C(F)(F)F)CCC2)c(=O)cc1NC1CCN(C)CC1)c1cccc(C(F)F)c1F [Example 225, (R)-N-(1-(3-(difluoromethyl)-2-fluorophenyl)ethyl)-4-((1-methylpiperidin-4-yl)amino)-6-oxo-1-(1-(trifluoromethyl)cyclobutyl)-1,6-dihydropyridine-3-carboxamide]
35.3 | C[C@@H](NC(=O)c1cn(C2(C(F)F)CC2)c(=O)cc1NC[C@@H]1[C@H]2CN(C)C[C@@H]12)c1cccc(C(F)F)c1F [Example 226, N-((R)-1-(3-(difluoromethyl)-2-fluorophenyl)ethyl)-1-(1-(difluoromethyl)cyclopropyl)-4-((((1R,5S,6s)-3-methyl-3-azabicyclo[3.1.0]hexan-6-yl)methyl)amino)-6-oxo-1,6-dihydropyridine-3-carboxamide]
61.9 | C[C@@H](NC(=O)c1cn(C2(C(F)F)CC2)c(=O)cc1N[C@]12C[C@H]1CN(C)C2)c1cccc(C(F)F)c1F [Example 227, N-((R)-1-(3-(difluoromethyl)-2-fluorophenyl)ethyl)-1-(1-(difluoromethyl)cyclopropyl)-4-(((1R,5S)-3-methyl-3-azabicyclo[3.1.0]hexan-1-yl)amino)-6-oxo-1,6-dihydropyridine-3-carboxamide]
64.3 | C[C@@H](NC(=O)c1cn(C2(C(F)F)CC2)c(=O)cc1N[C@@]12C[C@@H]1CN(C)C2)c1cccc(C(F)F)c1F [Example 228, N-((R)-1-(3-(difluoromethyl)-2-fluorophenyl)ethyl)-1-(1-(difluoromethyl)cyclopropyl)-4-(((1S,5R)-3-methyl-3-azabicyclo[3.1.0]hexan-1-yl)amino)-6-oxo-1,6-dihydropyridine-3-carboxamide]
22.7 | C[C@@H](NC(=O)c1cn(C2(C(F)F)CC2)c(=O)cc1N[C@H]1C[C@@H](N(C)C)C1)c1cccc(C(F)F)c1F [Example 229, N-((R)-1-(3-(difluoromethyl)-2-fluorophenyl)ethyl)-1-(1-(difluoromethyl)cyclopropyl)-4-(((1s,3S)-3-(dimethylamino)cyclobutyl)amino)-6-oxo-1,6-dihydropyridine-3-carboxamide]
21.9 | C[C@@H](NC(=O)c1cn(C2(C(C)(F)F)CC2)c(=O)cc1NC1CCN(C)CC1)c1cccc(C(F)F)c1F [Example 230, (R)-1-(1-(1,1-difluoroethyl)cyclopropyl)-N-(1-(3-(difluoromethyl)-2-fluorophenyl)ethyl)-4-((1-methylpiperidin-4-yl)amino)-6-oxo-1,6-dihydropyridine-3-carboxamide]
10.2 | C[C@@H](NC(=O)c1cn(C2CC3(C2)CC(F)(F)C3)c(=O)cc1N[C@H]1[C@@H]2CN(C)C[C@@H]21)c1cccc(C(F)F)c1F [Example 231, N-((R)-1-(3-(difluoromethyl)-2-fluorophenyl)ethyl)-1-(6,6-difluorospiro[3.3]heptan-2-yl)-4-(((1R,5S,6s)-3-methyl-3-azabicyclo[3.1.0]hexan-6-yl)amino)-6-oxo-1,6-dihydropyridine-3-carboxamide]
91.9 | C[C@@H](NC(=O)c1cn([C@@]2(C(F)(F)F)CCOC2)c(=O)cc1NC1CCN(C)CC1)c1cccc(C(F)F)c1F [Example 232, N-((R)-1-(3-(difluoromethyl)-2-fluorophenyl)ethyl)-4-((1-methylpiperidin-4-yl)amino)-6-oxo-1-((S)-3-(trifluoromethyl)tetrahydrofuran-3-yl)-1,6-dihydropyridine-3-carboxamide]
4.8 | C[C@@H](NC(=O)c1cn([C@]2(C(F)(F)F)CCOC2)c(=O)cc1NC1CCN(C)CC1)c1cccc(C(F)F)c1F [Example 233, N-((R)-1-(3-(difluoromethyl)-2-fluorophenyl)ethyl)-4-((1-methylpiperidin-4-yl)amino)-6-oxo-1-((R)-3-(trifluoromethyl)tetrahydrofuran-3-yl)-1,6-dihydropyridine-3-carboxamide]
13.5 | C[C@@H](NC(=O)c1cn(C2(C(F)F)CC2)c(=O)cc1NC1CCN(C)C2(CC2)C1)c1cccc(C(F)F)c1F (stereo partly drawn) [Example 240, N-((R)-1-(3-(difluoromethyl)-2-fluorophenyl)ethyl)-1-(1-(difluoromethyl)cyclopropyl)-4-((4-methyl-4-azaspiro[2.5]octan-7-yl)amino)-6-oxo-1,6-dihydropyridine-3-carboxamide]
29 | C[C@@H](NC(=O)c1cn(C2(C3CCC3)CC2)c(=O)cc1NC1CCN(C)CC1)c1cccc(C(F)F)c1F [Example 241, (R)-1-(1-cyclobutylcyclopropyl)-N-(1-(3-(difluoromethyl)-2-fluorophenyl)ethyl)-4-((1-methylpiperidin-4-yl)amino)-6-oxo-1,6-dihydropyridine-3-carboxamide]
11.6 | C[C@@H](NC(=O)c1cn(C2CC23CCC(F)(F)CC3)c(=O)cc1N[C@H]1[C@@H]2CN(C)C[C@@H]21)c1cccc(C(F)F)c1F (stereo partly drawn) [Example 242, N-((R)-1-(3-(difluoromethyl)-2-fluorophenyl)ethyl)-1-(6,6-difluorospiro[2.5]octan-1-yl)-4-(((1R,5S,6s)-3-methyl-3-azabicyclo[3.1.0]hexan-6-yl)amino)-6-oxo-1,6-dihydropyridine-3-carboxamide]
6.3 | C[C@@H](NC(=O)c1cn([C@@H]2CCOC[C@H]2F)c(=O)cc1N[C@H]1[C@@H]2C[C@H]1CN(C)C2)c1cccc(C(F)F)c1F [Example 243, N-((R)-1-(3-(difluoromethyl)-2-fluorophenyl)ethyl)-1-((3S,4R)-3-fluorotetrahydro-2H-pyran-4-yl)-4-(((1R,5Sx,6r)-3-methyl-3-azabicyclo[3.1.1]heptan-6-yl)amino)-6-oxo-1,6-dihydropyridine-3-carboxamide]
18.1 | C[C@@H](NC(=O)c1cn([C@@H]2CCOC[C@H]2F)c(=O)cc1N[C@@H]1[C@@H]2C[C@H]1CN(C)C2)c1cccc(C(F)F)c1F [Example 244, N-((R)-1-(3-(difluoromethyl)-2-fluorophenyl)ethyl)-1-((3S,4R)-3-fluorotetrahydro-2H-pyran-4-yl)-4-(((1R5S,6s)-3-methyl-3-azabicyclo[3.1.1]heptan-6-yl)amino)-6-oxo-1,6-dihydropyridine-3-carboxamide]
116 | COC12CC(CNc3cc(=O)n(C45CC(C4)C5)cc3C(=O)N[C@H](C)c3cccc(C(F)F)c3F)(C1)C2 [Example 262, (R)-1-(bicyclo[1.1.1]pentan-1-yl)-N-(1-(3-(difluoromethyl)-2-fluorophenyl)ethyl)-4-(((3-methoxybicyclo[1.1.1]pentan-1-yl)methyl)amino)-6-oxo-1,6-dihydropyridine-3-carboxamide]
